Measured values as given in article PMC7847995, “Site-directed mutagenesis identified the key active site residues of alcohol acyltransferase PpAAT1 responsible for aroma biosynthesis in peach fruits” (Horticulture Research, 2021).

Target: T1, PpAAT1 (Prunus persica, UniProt M5WU76)
T1 construct: gene AAT1; codon-optimised, C-terminal polyhistidine tag, pET-30a(+), expressed in E. coli, purified; HxxxD motif HAMCD at H165-D169
Assay: esterification assay
Type: biochemical
Conditions: co-substrate acetyl-CoA

T1 sequence (M5WU76 entry or part of it): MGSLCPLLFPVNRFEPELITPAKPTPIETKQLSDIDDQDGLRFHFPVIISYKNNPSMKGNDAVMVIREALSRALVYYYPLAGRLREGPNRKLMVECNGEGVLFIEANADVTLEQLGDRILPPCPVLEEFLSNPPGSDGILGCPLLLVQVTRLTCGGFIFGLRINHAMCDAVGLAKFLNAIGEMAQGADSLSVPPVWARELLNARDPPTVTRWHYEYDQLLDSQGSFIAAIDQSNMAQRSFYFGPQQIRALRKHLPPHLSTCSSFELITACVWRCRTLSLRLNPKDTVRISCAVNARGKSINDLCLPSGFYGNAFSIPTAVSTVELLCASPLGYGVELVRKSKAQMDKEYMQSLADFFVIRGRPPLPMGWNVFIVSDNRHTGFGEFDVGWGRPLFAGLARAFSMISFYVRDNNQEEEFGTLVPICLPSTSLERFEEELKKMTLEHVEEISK

SMILES | Kcat/Km (product decyl acetate) | Kcat/Km (product phenylmethyl acetate)
CCCCCCCCCCO [decanol] | acetyl–CoA and four different alcohols (propanol, hexanol, benzyl alcohol, and decanol) | –
OCc1ccccc1 [benzyl alcohol] | – | acetyl–CoA and four different alcohols (propanol, hexanol, benzyl alcohol, and decanol)
